Results as given in article PMC7872314, “Modeling Bioavailable Concentrations in Zebrafish Cell Lines and Embryos Increases the Correlation of Toxicity Potencies across Test Systems” (Environmental Science & Technology, 2020).
Where two headings read alike, the source gives them in different places.

How the values were obtained:
[1] = system: ZF4 (fibroblasts) cell line; test: MTS assay (MTS/BCA multiplex), NAD(P)H metabolism; assay type: cell-based, zebrafish (Danio rerio); conditions: Danio rerio, Fibroblast
[2] = system: zebrafish embryos; test: animal or person; assay type: in vivo, zebrafish (Danio rerio); conditions: for EC50: Danio rerio
[3] = system: ZF4 (fibroblasts) cell line; test: ATP assay (ATP/LDH multiplex), ATP metabolism; assay type: cell-based, zebrafish (Danio rerio); conditions: Danio rerio, Fibroblast
[4] = system: ZFL (hepatocytes) cell line; test: cells; assay type: cell-based, zebrafish (Danio rerio); conditions: Danio rerio, Hepatocyte
[5] = system: ZF4 (fibroblasts) cell line; test: BCA assay (MTS/BCA multiplex), protein amount; assay type: cell-based, zebrafish (Danio rerio); conditions: Danio rerio, Fibroblast
[6] = system: zebrafish cell lines vs zebrafish embryo; test: Potency ratios IC50;x/EC50;x (cytotoxicity assays vs mFET); set-up: species or system zebrafish (Danio rerio); conditions: median over cytotoxicity endpoints, nominal, 48 h cells / 48 hpf mFET
[7] = system: ZF4 (fibroblasts) cell line; test: Neutral red, absorbance (NRa), AB/CFDA/NR multiplex, lysosome stability; assay type: cell-based, zebrafish (Danio rerio); conditions: Danio rerio, Fibroblast
[8] = system: ZF4 (fibroblasts) cell line; test: Neutral red, fluorescence (NRf), AB/CFDA/NR multiplex, lysosome stability; assay type: cell-based, zebrafish (Danio rerio); conditions: Danio rerio, Fibroblast
[9] = system: zebrafish embryos; set-up: method as in earlier work; conditions: nominal, cited from earlier work
[10] = system: ZF4 (fibroblasts) cell line; test: alamarBlue (AB) endpoint of AB/CFDA/NR multiplex, cellular respiration; assay type: cell-based, zebrafish (Danio rerio); conditions: Danio rerio, Fibroblast
[11] = system: ZFL (hepatocytes) cell line; test: cells; assay type: cell-based, zebrafish (Danio rerio); conditions: Danio rerio, Hepatocyte; remark: listed apart in the source
[12] = system: ZFL (hepatocytes) cell line; test: cells; assay type: cell-based, zebrafish (Danio rerio); conditions: Danio rerio, Hepatocyte; remark: listed apart in the source
[13] = system: ZFL (hepatocytes) cell line; test: cells; assay type: cell-based, zebrafish (Danio rerio); conditions: Danio rerio, Hepatocyte; remark: listed apart in the source
[14] = system: ZF4 and ZFL cell lines; test: Cytotoxicity assays, all endpoints, both cell lines (mean/range); assay type: cell-based, zebrafish (Danio rerio); conditions: 48 h, mean of all cytotoxicity endpoints (without LDH) in ZF4 and ZFL
[15] = system: diverse mammalian cell assay results; set-up: method as in https://comptox.epa.gov/dashboard/; conditions: COMPTOX; ref https://comptox.epa.gov/dashboard/; read-out: median AC50; cited from earlier work
[16] = ref Comptox, PubChem or DrugBank; cited from earlier work
[17] = system: ZF4 (fibroblasts) cell line; test: CFDA endpoint of AB/CFDA/NR multiplex, membrane stability; assay type: cell-based, zebrafish (Danio rerio); conditions: Danio rerio, Fibroblast
[18] = system: ZFL (hepatocytes) cell line; test: cells; assay type: cell-based, zebrafish (Danio rerio); conditions: Danio rerio, Hepatocyte; remark: listed apart in the source
[19] = system: ZFL (hepatocytes) cell line; test: cells; assay type: cell-based, zebrafish (Danio rerio); conditions: Danio rerio, Hepatocyte; remark: listed apart in the source
[20] = system: ZFL (hepatocytes) cell line; test: cells; assay type: cell-based, zebrafish (Danio rerio); conditions: Danio rerio, Hepatocyte; remark: listed apart in the source

## CO[C@H]1C[C@H](O[C@H]2[C@H](C)O[C@@H](O[C@@H]3/C(C)=C/C[C@@H]4C[C@@H](C[C@]5(C=C[C@H](C)[C@@H](C6CCCCC6)O5)O4)OC(=O)[C@@H]4C=C(C)[C@@H](O)[C@H]5OC/C(=C\C=C\[C@@H]3C)[C@]54O)C[C@@H]2OC)O[C@@H](C)[C@@H]1O [Doramectin, doramectin]
[1]; MTS - ZF4, log10 of IC50, read-out: LogIC50 (converted)
  IC50: 12.3 µM
[1]; MTS - ZF4, read-out: IC50
  IC50: 12.3 µM
[1]; ZF4, 48 h exposure, nominal, log10, read-out: logIC50 (log10 IC50;nom) MTS (converted)
  IC50: 12.3 µM
[1]; ZF4, 48 h exposure, nominal, read-out: IC50;nom MTS
  IC50: 12.3 µM
[2]; 48 hpf time point less sensitive than 144 hpf
  difference in toxicity (EC50;nom) between 48 hpf and 144 hpf: marginally more toxic
[2]; 48 hpf, nominal, log10, listed as Dor
  log EC50;nom (mFET): -5.914 M
[2]; 48 hpf, nominal, log10, read-out: log EC50;nom (mFET) (converted)
  EC50: 1.23 µM
[2]; 48 hpf, nominal, read-out: EC50;nom (embryo)
  EC50: 1.1 µg/mL
[2]; read-out: EC50 48hpf
  EC50: 1.22 µM
[2]; read-out: EC50;nom (mFET)
  EC50: 1.22 µM
[3]; ATP - ZF4, log10 of IC50, read-out: LogIC50 (converted)
  IC50: 4.38 µM
[3]; ATP - ZF4, read-out: IC50
  IC50: 4.38 µM
[3]; ZF4, 48 h exposure, nominal, log10, read-out: logIC50 (log10 IC50;nom) ATP (converted)
  IC50: 4.37 µM
[3]; ZF4, 48 h exposure, nominal, read-out: IC50;nom ATP
  IC50: 4.38 µM
[4]; ATP - ZFL, log10 of IC50, read-out: LogIC50 (converted)
  IC50: 15.9 µM
[4]; ATP - ZFL, read-out: IC50
  IC50: 15.9 µM
[4]; ZFL, 48 h exposure, nominal, log10, read-out: logIC50 (log10 IC50;nom) ATP (converted)
  IC50: 15.8 µM
[4]; ZFL, 48 h exposure, nominal, read-out: IC50;nom ATP
  IC50: 15.9 µM
[5]; BCA - ZF4, log10 of IC50, read-out: LogIC50 (converted)
  IC50: 9.03 µM
[5]; BCA - ZF4, read-out: IC50
  IC50: 9.03 µM
[5]; ZF4, 48 h exposure, nominal, log10, read-out: logIC50 (log10 IC50;nom) BCA (converted)
  IC50: 9.12 µM
[5]; ZF4, 48 h exposure, nominal, read-out: IC50;nom BCA
  IC50: 9.03 µM
[6]
  potency ratio IC50;nom/EC50;nom (median): 7.68
[7]; NR-abs - ZF4, log10 of IC50, read-out: LogIC50 (converted)
  IC50: 14.6 µM
[7]; NR-abs - ZF4, read-out: IC50
  IC50: 14.6 µM
[7]; ZF4, 48 h exposure, nominal, log10, read-out: logIC50 (log10 IC50;nom) NRa (converted)
  IC50: 14.5 µM
[7]; ZF4, 48 h exposure, nominal, read-out: IC50;nom NRa
  IC50: 14.6 µM
[7]; ZF4 cell line, NRa endpoint, nominal, read-out: IC50;nom
  IC50: 13.1 µg/mL
[8]; NR-fluo - ZF4, log10 of IC50, read-out: LogIC50 (converted)
  IC50: 15.3 µM
[8]; NR-fluo - ZF4, read-out: IC50
  IC50: 15.3 µM
[8]; ZF4, 48 h exposure, nominal, log10, read-out: logIC50 (log10 IC50;nom) NRf (converted)
  IC50: 15.5 µM
[8]; ZF4, 48 h exposure, nominal, read-out: IC50;nom NRf
  IC50: 15.3 µM
[9]; 144 hpf, converted
  EC50: 0.645 µM
[9]; log10
  logEC50 144 hpf: -6.19 M
[10]; AB - ZF4, log10 of IC50, read-out: LogIC50 (converted)
  IC50: 17.1 µM
[10]; AB - ZF4, read-out: IC50
  IC50: 17.1 µM
[10]; ZF4, 48 h exposure, nominal, log10, read-out: logIC50 (log10 IC50;nom) AB (converted)
  IC50: 17 µM
[10]; ZF4, 48 h exposure, nominal, read-out: IC50;nom AB
  IC50: 17.1 µM
[11]; AB - ZFL, log10 of IC50, read-out: LogIC50 (converted)
  IC50: 6.74 µM
[11]; AB - ZFL, read-out: IC50
  IC50: 6.74 µM
[11]; ZFL, 48 h exposure, nominal, log10, read-out: logIC50 (log10 IC50;nom) AB (converted)
  IC50: 6.76 µM
[11]; ZFL, 48 h exposure, nominal, read-out: IC50;nom AB
  IC50: 6.74 µM
[12]; CFDA - ZFL, log10 of IC50, read-out: LogIC50 (converted)
  IC50: 9.33 µM
[12]; CFDA - ZFL, read-out: IC50
  IC50: 9.33 µM
[12]; ZFL, 48 h exposure, nominal, log10, read-out: logIC50 (log10 IC50;nom) CFDA (converted)
  IC50: 9.33 µM
[12]; ZFL, 48 h exposure, nominal, read-out: IC50;nom CFDA
  IC50: 9.33 µM
[13]; NR-fluo - ZFL, log10 of IC50, read-out: LogIC50 (converted)
  IC50: 5.08 µM
[13]; NR-fluo - ZFL, read-out: IC50
  IC50: 5.08 µM
[13]; ZFL, 48 h exposure, nominal, log10, read-out: logIC50 (log10 IC50;nom) NRf (converted)
  IC50: 5.13 µM
[13]; ZFL, 48 h exposure, nominal, read-out: IC50;nom NRf
  IC50: 5.08 µM
[14]; Danio rerio, log10, read-out: Mean log IC50nom (converted)
  IC50: 9.12 µM
[14]; log10, listed as Dor
  Mean log IC50nom: -5.037 M
[15]
  AC50: 1.87 µM
[16]
  BCF: 5.26
  Physiological charge: 0
  logKoa: 9.63
  logKow: 5.24
  pKa (Strongest Acidic): 12.47
  pKa (Strongest Basic): -3.4
  w_solubility (water solubility): 39.5 µM
[17]; CFDA - ZF4, log10 of IC50, read-out: LogIC50 (converted)
  IC50: 16.8 µM
[17]; CFDA - ZF4, read-out: IC50
  IC50: 16.8 µM
[17]; ZF4, 48 h exposure, nominal, log10, read-out: logIC50 (log10 IC50;nom) CFDA (converted)
  IC50: 17 µM
[17]; ZF4, 48 h exposure, nominal, read-out: IC50;nom CFDA
  IC50: 16.8 µM
[18]; MTS - ZFL, log10 of IC50, read-out: LogIC50 (converted)
  IC50: 9.41 µM
[18]; MTS - ZFL, read-out: IC50
  IC50: 9.42 µM
[18]; ZFL, 48 h exposure, nominal, log10, read-out: logIC50 (log10 IC50;nom) MTS (converted)
  IC50: 9.33 µM
[18]; ZFL, 48 h exposure, nominal, read-out: IC50;nom MTS
  IC50: 9.42 µM
[19]; BCA - ZFL, log10 of IC50, read-out: LogIC50 (converted)
  IC50: 4.44 µM
[19]; BCA - ZFL, read-out: IC50
  IC50: 4.44 µM
[19]; ZFL, 48 h exposure, nominal, log10, read-out: logIC50 (log10 IC50;nom) BCA (converted)
  IC50: 4.47 µM
[19]; ZFL, 48 h exposure, nominal, read-out: IC50;nom BCA
  IC50: 4.44 µM
[20]; NR-abs - ZFL, log10 of IC50, read-out: LogIC50 (converted)
  IC50: 4.52 µM
[20]; NR-abs - ZFL, read-out: IC50
  IC50: 4.52 µM
[20]; ZFL, 48 h exposure, nominal, log10, read-out: logIC50 (log10 IC50;nom) NRa (converted)
  IC50: 4.57 µM
[20]; ZFL, 48 h exposure, nominal, read-out: IC50;nom NRa
  IC50: 4.52 µM
